Experimental data as given in patent US20260265694A1, “USE OF A VITISIN COMPOUND FOR THE PRODUCTION OF HEMATOPOIETIC CELLS” (ETABLISSEMENT FRANCAIS DU SANG, priority 2022, published 2026).

Assays:
[1] = test system: peripheral blood CD34+ cells; test: ERYTHRO 2 PROTOCOL: three-phase erythrocyte differentiation; format: cell-based, human; settings: peripheral blood CD34+ cells in homeostasis, 10 μM
Source text: (§1) This protocol was applied to CD34^+ cells. Phase 1 of this protocol was in particular applied to BFU-E cells. This protocol was adapted from Vlaski et al. (Experimental Hematology 2009; 37:573-584).
(§2) The ex vivo erythrocyte production was established on a 28-day cell culture and involves three phases, namely 1) amplification of primitive erythrocyte progenitors, then 2) differentiation of said progenitors into erythrocyte precursors, and finally 3) the terminal stage of maturation with cell enucleation and development of mature erythrocytes.
(§3) i. Detailed Description of the Three Phases of the Protocol • Phase I of the protocol starts on DO with the seeding of 10^4 cells/mL in 5 mL of supplemented IMDM medium as defined below (see section ii). On day 4, dilution of the culture is performed by recovering 3 mL, which is replaced with the same volume of fresh medium. […] From day 11 to the end of the process, the cells are placed on a layer of mesenchymal stromal cells (MSCs) (coculture), allowing terminal maturation into functional enucleated cells by virtue of the contact between stromal cells and erythrocyte precursors. Suspended erythrocyte cells are seeded at a concentration of 3×10^5/ml and co-cultured from day 11 to day 15 in fresh medium with cytokines (SCF, IL-3, EPO and HC) and 5% fetal calf serum (FCS) required for MSCs. On day 15, the suspended erythrocyte cells are removed from culture, washed, then reseeded onto a new adherent layer of MSCs and cultured for a further four days in 2 mL of fresh medium containing only EPO. • Phase III of the protocol begins on day 19. At this stage, the cells complete their maturation by the enucleation of orthochromatic erythroblasts to form reticulocytes, leading to the formation of erythrocytes. On day 19, the cells are washed and spread on a new layer of MSCs in 2 mL of fresh cytokine-free medium. On day 23, the cultures are fed with fresh medium until day 28, corresponding to the last day of culture in the erythropoiesis protocol. ii. Description of the Culture Medium
(§4) The cells are incubated in Iscove's Modified Dulbecco Medium (IMDM_PAN BIOTECH) supplemented with various reagents to obtain a medium promoting the growth of cells committed to the erythrocyte lineage, namely: • L-Glutamine (4 mM), • Streptomycin and penicillin (1%), • Inositol (40 μg/mL), • Folic acid (10 μg/mL), • Mono-thioglycerol (1.6×10^−4 M), • Transferrin (120 μg/mL), • Insulin (10 μg/mL), N • Iron nitrate (90 ng/mL), • Iron sulfate (900 ng/mL) • Human serum albumin (10 mg/ml).
(§5) After preparation of the culture medium, cytokines are added extemporaneously to the culture medium: • Stem Cell Factor (SCF) at 100 ng/mL, • Interleukin-3 (IL-3) at 5 ng/mL, • Erythropoietin (EPO) at 3 IU/mL, • Hydrocortisone (HC) at 10^−6 M. The CD34^+ cells are incubated at 20% O2 and 5% CO2 at 37° C. for 28 days. iii. Description of the Culture Conditions Applied In order to test the effect of vitisin B in this context, various conditions were defined.
(§6) • CTRL condition: Absence of vitisin B throughout the entire protocol. • Condition I: Presence of vitisin B (10 μM) during phase I of the protocol. • […]: Presence of vitisin B (10 μM) during phases I and II of the protocol. • Condition III: Presence of vitisin B (10 μM) during the three phases of the protocol.
(§7) Analyses are performed on cells from each condition. The differentiation and maturation of erythrocyte cells are monitored by quantifying progenitors, analyzing the expression of GPA and CD71 markers, and also by morphological analysis.
(§8) During and at the end of the various erythrocyte differentiation protocols, cell proliferation and cell differentiation are analyzed. Cell proliferation is evaluated by counting of cells on Malassez slides, with Trypan blue exclusion of dead cells. […]

[2] = test system: placental blood CD34+ cells; test: as above; format: cell-based, human
Source text: as §1, §2, §3, §4, §5, §6, §7, §8

Oc1ccc(C2Oc3ccc(/C=C/c4cc(O)cc5c4[C@H](c4cc(O)cc(O)c4)[C@@H](c4ccc(O)cc4)O5)cc3C2c2cc(O)cc3c2C(c2cc(O)cc(O)c2)C(c2ccc(O)cc2)O3)cc1 (stereo in doubt) [vitisin B, 5-[(2R,2'S,3R,3'S)-5-[(1E)-2-[(2S,3S)-3-(3,5-Dihydroxyphenyl)-2,3-dihydro-6-hydroxy-2-(4-hydroxyphenyl)-4-benzofuranyl]ethenyl]-2,2′,3,3′-tetrahydro-6′-hydroxy-2,2′-bis(4-hydroxyphenyl)[3,4′-bibenzofuran]-3′-yl]-1,3-benzenediol]
cell proliferation from the transition to phase II [1]: sharp increase
percentage of cells with the phenotype CD71negGPA+ ([2]; 10 μM, versus CTRL, FIG. 6A): increases
cell proliferation in phase I ([2]; Days 0 to 11, 10 μM, versus CTRL, FIG. 5): similar
number of cells relative to the control condition (CTRL) ([2]; condition I: vitisin B 10 μM during phase I only, FIG. 5): 1.5 times
cells expressing GPA ([2]; day 8 of culture, stated without distinguishing conditions): less than 20%
cells expressing GPA ([2]; day 28, 10 μM (CTRL 40%), FIG. 6A): more than 50%
cell proliferation from the transition to phase II ([2]; from Day 11, peak on day 21, 10 μM, conditions I, II, III, FIG. 5): sharp increase
absolute number of cells with the phenotype CD71negGPA+ ([2]; vitisin B 10 μM in phase I, FIG. 6B): increases
